Experimental data taken from publication PMC6327987, “Synthesis and biological evaluation of novel N^9-heterobivalent β-carbolines as angiogenesis inhibitors” (Journal of Enzyme Inhibition and Medicinal Chemistry, 2019).
Like-named read-outs stand apart in the source and are kept apart here.

Experiments:
[1] = test system: LLC; test: MTT cytotoxicity, Lewis lung carcinoma cells; type: cell-based; conditions: MTT assay, mean ± SD of at least three determinations
Method: (§1) Target compounds were assayed by the MTT method for cytotoxic activity, as described previously. The panel of cell lines included gastric carcinoma (BGC-823), liver carcinoma (HepG2), breast carcinoma (MCF-7), colon carcinoma (HT-29), esophageal carcinoma (Eca-109), and Lewis lung carcinoma (LLC). Growth inhibition rates were calculated with the following equitation: Inhibition ratio (%)= ODcompd−ODblank/ODDMSO−ODblank×100% . Half maximal inhibitory concentration (IC50) of each compound was calculated using software Graph-Pad Prism (version 6.0).
(§2) All the 24 novel synthesized N^9-heterobivalent β-carbolines (5a-x) were screened for their in vitro cytotoxic activities against six different cancer cell lines, namely BGC-823 (gastric carcinoma), HepG2 (liver carcinoma), MCF-7 (breast carcinoma), HT-29 (colon carcinoma), Eca-109 (esophageal carcinoma) and LLC (Lewis lung carcinoma). The IC50 values were the average of at least three independent experiments.

[2] = test system: HT-29; test: MTT cytotoxicity, colon carcinoma cells; type: cell-based; conditions: MTT assay, colon carcinoma HT-29, mean ± SD of at least three determinations
Method: as §1, §2

[3] = test system: MCF-7; test: MTT cytotoxicity, breast carcinoma cells; type: cell-based; conditions: MTT assay, breast carcinoma MCF-7, mean ± SD of at least three determinations
Method: as §1, §2

[4] = test system: Eca-109; test: MTT cytotoxicity, esophageal carcinoma cells; type: cell-based; conditions: esophageal carcinoma Eca-109, mean ± SD of at least three determinations
Method: as §1, §2

[5] = test system: HepG2; test: MTT cytotoxicity, liver carcinoma cells; type: cell-based; conditions: MTT assay, liver carcinoma HepG2, mean ± SD of at least three determinations
Method: as §1, §2

[6] = test system: BGC-823; test: MTT cytotoxicity, gastric carcinoma cells; type: cell-based; conditions: MTT assay, gastric carcinoma BGC-823, mean ± SD of at least three determinations
Method: as §1, §2

[7] = test system: six tumor cell lines (BGC-823, HepG2, MCF-7, HT-29, Eca-109, LLC); test: MTT cytotoxicity, panel of six tumour cell lines (summary statements); type: cell-based; conditions: MTT assay, statement over all cell lines tested; read-out: IC50 against the tested six tumor cell lines
Method: as §1, §2

[8] = Homo sapiens, ECa-109, MTT assay

SMILES	IC50 ([1]; Lewis lung carcinoma)	IC50 ([2]; Homo sapiens)	IC50 ([3]; Homo sapiens, MCF7)	IC50 [4, 8]	melting point	IC50 ([5]; Homo sapiens)	IC50 ([6]; Homo sapiens)	IC50 [7]	IC50 [1]	IC50 ([4]; MTT assay)	IC50 [2]	IC50 ([3]; read-out: IC50 (μM) ±SD MCF7)	IC50 [5]	IC50 [6]
COc1ccc2c3ccnc(C)c3n(CCCCn3c4ccccc4c4ccnc(C)c43)c2c1 [Compound 5s, 7-methoxy-1-methyl-9–(4-(1-methyl-β-carboline-9-yl)butyl)-β-carboline]	6.2 ± 0.6 µM	11.1 ± 0.8 µM	36.4 ± 2.1 µM	11.3 ± 2.7 µM	188.7 to 189.4 °C	37.6 ± 5.8 µM	17.9 ± 1.1 µM	–	–	–	–	–	–	–
Cc1nccc2c3ccccc3n(CCCCn3c4ccccc4c4ccnc(-c5cccs5)c43)c12 [Compound 5f, 1–(2-thienyl)-9–(4-(1-methyl-β-carboline-9-yl)butyl)-β-carboline]	–	56.1 ± 4.2 µM	46.6 ± 4.8 µM	64.1 ± 7.6 µM	214.8 to 216 °C	> 100 µM	38.8 ± 2.9 µM	–	–	–	–	–	–	–
COc1ccc(-c2nccc3c4ccccc4n(CCCCn4c5ccccc5c5ccnc(-c6cccs6)c54)c23)cc1 [Compound 5o, 1–(4-methoxyphenyl)-9–(4-(1–(2-thienyl)-β-carboline-9-yl)butyl)-β-carboline]	96.8 ± 9.8 µM	> 100 µM	> 100 µM	> 100 µM	232.5 to 233.3 °C	> 100 µM	> 100 µM	–	–	–	–	–	–	–
Cc1nccc2c3ccccc3n(CCCCCCn3c4ccccc4c4ccnc(-c5cccs5)c43)c12 [Compound 5h, 1–(2-thienyl)-9–(6-(1-methyl-β-carboline-9-yl)hexyl)-β-carboline]	30.2 ± 1.5 µM	47.8 ± 6.5 µM	75.9 ± 9.4 µM	30.2 ± 3.4 µM	238.5 to 239.6 °C	> 100 µM	> 100 µM	–	–	–	–	–	–	–
COc1cc(-c2nccc3c4ccccc4n(CCCCn4c5ccccc5c5ccnc(-c6cccs6)c54)c23)cc(OC)c1OC [Compound 5q, 1–(3,4,5-trimethoxyphenyl)-9–(4-(1–(2-thienyl)-β-carboline-9-yl)butyl)-β-carboline]	> 100 µM	> 100 µM	> 100 µM	> 100 µM	226.5 to 227.8 °C	> 100 µM	> 100 µM	–	–	–	–	–	–	–
COc1ccc2c3ccnc(C)c3n(CCCCCn3c4ccccc4c4ccnc(-c5cccs5)c43)c2c1 [Compound 5x, 7-methoxy-1-methyl-9–(5-(1–(2-thienyl)-β-carboline-9-yl)pentyl)-β-carboline]	12.2 ± 3.7 µM	> 100 µM	41.6 ± 5.3 µM	46.7 ± 6.9 µM	196.1 to 197.4 °C	> 100 µM	> 100 µM	–	–	–	–	–	–	–
Cc1nccc2c3ccccc3n(CCCCCn3c4ccccc4c4ccnc(-c5cccs5)c43)c12 [Compound 5g, 1–(2-thienyl)-9–(5-(1-methyl-β-carboline-9-yl)pentyl)-β-carboline]	22.7 ± 1.4 µM	32.3 ± 5.3 µM	75.5 ± 10.7 µM	30.8 ± 3.2 µM	158.4 to 159.2 °C	18.8 ± 2.3 µM	97.6 ± 12.4 µM	18.8 to 97.6 µM	–	–	–	–	–	–
COc1ccc(-c2nccc3c4ccccc4n(CCCCn4c5ccccc5c5ccnc(-c6cccnc6)c54)c23)cc1 [Compound 5k, 1–(4-methoxyphenyl)-9–(4-(1–(3-pyridyl)-β-carboline-9-yl)butyl)-β-carboline]	> 100 µM	> 100 µM	> 100 µM	> 100 µM	241.2 to 242.4 °C	> 100 µM	> 100 µM	–	–	–	–	–	–	–
COc1ccc2c3ccnc(C)c3n(CCCCn3c4ccccc4c4ccnc(-c5cccnc5)c43)c2c1 [Compound 5u, 7-methoxy-1-methyl-9–(4-(1–(3-pyridyl)-β-carboline-9-yl)butyl)-β-carboline]	12.2 ± 2.3 µM	15.1 ± 3.1 µM	23.9 ± 0.7 µM	25.2 ± 5.5 µM	163.8 to 164.5 °C	26.8 ± 2.8 µM	39.1 ± 2.4 µM	–	–	–	–	–	–	–
Cc1nccc2c3ccccc3n(CCCCCCn3c4ccccc4c4ccnc(-c5cccnc5)c43)c12 [Compound 5d, 1–(3-pyridyl)-9–(6-(1-methyl-β-carboline-9-yl)hexyl)-β-carboline]	< 20 µM	> 100 µM	> 100 µM	< 20 µM	141.3 to 142.9 °C	> 100 µM	> 100 µM	–	14.5 ± 0.9 µM	18.9 ± 3.1 µM	–	–	–	–
N.N.[Cl][Pt][Cl] [Cisplatin, reference compound]	–	–	–	–	–	–	–	–	7.6 ± 0.4 µM	8.9 ± 0.6 µM	26.8 ± 1.4 µM	12.4 ± 0.7 µM	14.8 ± 0.4 µM	11.6 ± 0.7 µM
c1cncc(-c2nccc3c4ccccc4n(CCCCn4c5ccccc5c5ccncc54)c23)c1 [Compound 5a, 1–(3-pyridyl)-9–(4-(β-carboline-9-yl)butyl)-β-carboline]	> 100 µM	> 100 µM	> 100 µM	> 100 µM	173.3 to 175.1 °C	39.1 ± 5.4 µM	> 100 µM	–	–	–	–	–	–	–
Clc1ccccc1-c1nccc2c3ccccc3n(CCCCn3c4ccccc4c4ccnc(-c5cccnc5)c43)c12 [Compound 5n, 1–(2-chlorophenyl)-9–(4-(1–(3-pyridyl)-β-carboline-9-yl)butyl)-β-carboline]	> 100 µM	72.2 ± 5.2 µM	86.9 ± 15.3 µM	> 100 µM	177.6 to 178.9 °C	> 100 µM	> 100 µM	–	–	–	–	–	–	–
COc1ccc(-c2nccc3c4ccccc4n(CCCCn4c5ccccc5c5ccnc(-c6cccnc6)c54)c23)cc1OC [Compound 5l, 1–(3,4-dimethoxyphenyl)-9–(4-(1–(3-pyridyl)-β-carboline-9-yl)butyl)-β-carboline]	46.8 ± 6.4 µM	91.1 ± 10.6 µM	> 100 µM	93.2 ± 7.1 µM	239.8 to 240.5 °C	79.5 ± 12.3 µM	> 100 µM	–	–	–	–	–	–	–
Clc1ccccc1-c1nccc2c3ccccc3n(CCCCn3c4ccccc4c4ccnc(-c5cccs5)c43)c12 [Compound 5r, 1–(2-chlorophenyl)-9–(4-(1–(2-thienyl)-β-carboline-9-yl)butyl)-β-carboline]	> 100 µM	96.2 ± 5.1 µM	60.7 ± 4.8 µM	96.7 ± 11.9 µM	225.4 to 227.2 °C	> 100 µM	> 100 µM	–	–	–	–	–	–	–
COc1cc(-c2nccc3c4ccccc4n(CCCCn4c5ccccc5c5ccnc(-c6cccnc6)c54)c23)cc(OC)c1OC [Compound 5m, 1–(3,4,5-trimethoxyphenyl)-9–(4-(1–(3-pyridyl)-β-carboline-9-yl)butyl)-β-carboline]	> 100 µM	> 100 µM	> 100 µM	70.9 ± 8.4 µM	231 to 232.3 °C	85.1 ± 11.6 µM	> 100 µM	–	–	–	–	–	–	–
Cc1nccc2c3ccccc3n(CCCCCn3c4ccccc4c4ccnc(-c5ccccc5Cl)c43)c12 [Compound 5j, 1–(2-chlorophenyl)-9–(5-(1-methyl-β-carboline-9-yl)pentyl)-β-carboline]	< 20 µM	24.1 ± 2.2 µM	46.8 ± 3.7 µM	< 20 µM	169.1 to 171.2 °C	> 100 µM	> 100 µM	–	16.6 ± 3.1 µM	18.6 ± 2.1 µM	–	–	–	–
COc1ccc2c3ccnc(C)c3n(CCCCCn3c4ccccc4c4ccnc(-c5cccnc5)c43)c2c1 [Compound 5v, 7-methoxy-1-methyl-9–(5-(1–(3-pyridyl)-β-carboline-9-yl)pentyl)-β-carboline]	11.8 ± 1.8 µM	13.5 ± 2.2 µM	18.7 ± 0.5 µM	13.2 ± 3.6 µM	183.6 to 184.9 °C	31.1 ± 3.4 µM	23.2 ± 1.5 µM	–	–	–	–	–	–	–
c1csc(-c2nccc3c4ccccc4n(CCCCn4c5ccccc5c5ccncc54)c23)c1 [Compound 5e, 1–(2-thienyl)-9–(4-(β-carboline-9-yl)butyl)-β-carboline]	32.3 ± 4.5 µM	18.1 ± 3.6 µM	> 100 µM	> 100 µM	141.6 to 143.1 °C	> 100 µM	> 100 µM	–	–	–	–	–	–	–
COc1ccc(-c2nccc3c4ccccc4n(CCCCn4c5ccccc5c5ccnc(-c6cccs6)c54)c23)cc1OC [Compound 5p, 1–(3,4-dimethoxyphenyl)-9–(4-(1–(2-thienyl)-β-carboline-9-yl)butyl)-β-carboline]	> 100 µM	> 100 µM	> 100 µM	> 100 µM	217.2 to 218.4 °C	> 100 µM	> 100 µM	–	–	–	–	–	–	–
